In brackets after ≈: the same amount, converted by molar mass. Starred links: 1 amine or outer side, 2 acyl side, 3 side chain; linkers in the order of their positions; H or OH if unused. Positions of bridges follow the written chain, without caps; N, C: chain ends. Non-standard residues stand in square brackets, D forms with d. Residues, ends and D or L forms follow the SMILES beside them. Chains are numbered I, II in the order given. Actinocin(1to9) = Cc1c2oc3c(C)ccc(C(=O)[*:2])c3nc-2c(C(=O)[*:1])c(N)c1=O; X1 = CCC(N[*:1])C(C)C(=O)O[C@H](C(=O)[*:2])[C@@H](C)CC; X2 = C[C@H](N[*:1])C(=O)C(C)(C)C(=O)[*:2]; NMeY = CN[C@@H](Cc1ccc(O)cc1)C(=O)O; NMeI = CC[C@H](C)[C@H](NC)C(=O)O; NMeV = CN[C@H](C(=O)O)C(C)C; Sar = CNCC(=O)O
Assays:
P388 = experiment: Cytotoxicity against mouse P388 cells assessed as concentration required for 50% inhibition; format: functional
BXPC-3 = experiment: Cytotoxicity against human BXPC3 cells assessed as concentration required for 50% inhibition; format: functional
OVCAR-3 = experiment: Cytotoxicity against human OVCAR-3 cells assessed as concentration required for 50% inhibition; format: functional
SF-295 = experiment: Cytotoxicity against human SF295 cells assessed as concentration required for 50% inhibition; format: functional
KM-20L2 = experiment: Cytotoxicity against human KM20L2 cells assessed as concentration required for 50% inhibition; format: functional
NCI-H460 = experiment: Cytotoxicity against human NCIH460 cells assessed as concentration required for 50% inhibition; format: functional
DU-145 = experiment: Cytotoxicity against human DU145 cells assessed as concentration required for 50% inhibition; format: functional
HL-60 = experiment: Cytotoxicity against human HL60 cells; format: functional, cell-based
A549 = experiment: Cytotoxicity against human A549 cells; format: functional, cell-based
HeLa = experiment: Cytotoxicity against human HeLa cells; format: functional, cell-based
MCF7 = experiment: Cytotoxicity against human MCF7 cells assessed as concentration required for 50% inhibition; format: functional
SF-268 = experiment: Cytotoxicity against human SF268 cells assessed as concentration required for 50% inhibition; format: functional
SK-MEL-5 = experiment: Cytotoxicity against human SK-MEL-5 cells assessed as concentration required for 50% inhibition; format: functional
A498 = experiment: Cytotoxicity against human A498 cells assessed as concentration required for 50% inhibition; format: functional
[1] = system: Mycobacterium tuberculosis; experiment: Antibacterial activity against Mycobacterium tuberculosis; format: functional
Vero = experiment: Cytotoxicity against african green monkey Vero cells; format: functional, cell-based; conditions: Chlorocebus sabaeus

Row | SMILES | Activity (P388) | Activity (BXPC-3) | Activity (OVCAR-3) | Activity (SF-295) | Activity (KM-20L2) | Activity (NCI-H460) | Activity (DU-145) | other results
1 | COc1c(C)c2c(c(O)c1C/C=C(C)/C=C/C(=O)O)C(=O)OC2 | 0.11 µg/mL |  |  |  |  |  |  | 
2 | COc1cc([C@@H]2c3cc4c(c(O[C@@H]5O[C@H](CO)[C@@H](O)[C@H](O)[C@H]5O)c3C[C@H]3COC(=O)[C@@H]32)OCO4)cc(OC)c1OC | 0.21 µg/mL | >1 µg/mL | 0.85 µg/mL | 0.27 µg/mL | >1 µg/mL | 0.28 µg/mL | >1 µg/mL | 
3 | CS[C@@H]1[C@H]2C(=O)N(C)[C@@H](C(C)C)C(=O)OC[C@@H](NC(=O)c3cnc4ccccc4n3)C(=O)N[C@@H](C)C(=O)N(C)[C@@H](C[S+]1[O-])C(=O)N(C)[C@@H](C(C)C)C(=O)OC[C@@H](NC(=O)c1cnc3ccccc3n1)C(=O)N[C@@H](C)C(=O)N2C (stereo partly specified) |  |  |  |  |  |  |  | IC50 (HL-60): 0.2 µg/mL (≈ 0.179 µM); IC50 (A549): 0.2 µg/mL (≈ 0.179 µM); IC50 (HeLa): 0.2 µg/mL (≈ 0.179 µM)
4 | CC[C@H](C)[C@@H]1NC(=O)[C@H](CC(C)C)NC(=O)[C@@H]2CCCN2C(=O)[C@H](C(C)C)NC(=O)[C@H](Cc2ccc(O)cc2)NC(=O)[C@@H]2CCCN2C(=O)[C@@H]2CCCN2C(=O)[C@H](CC(C)C)NC1=O [AXINASTATIN 5] (cyclo(ILPPYVPL)) | 1.9 µg/mL | 0.68 µg/mL |  |  | 0.28 µg/mL | 0.82 µg/mL | 0.87 µg/mL | Activity (MCF7): 1.4 µg/mL; Activity (SF-268): 1.8 µg/mL
5 | CCCCCCCCCCCCCC(=O)O[C@H]1CC[C@H](NC(=O)[C@H](OC)[C@H](O)[C@@H](O)[C@H](O)/C=C/C(C)C)C(=O)NC1 [BENGAMIDE A] | 0.12 µg/mL | 0.027 µg/mL | 0.01 µg/mL | 0.001 µg/mL | 0.0049 µg/mL | 0.00054 µg/mL | 0.0056 µg/mL | 
6 | CCCCCCCCCCCCCC(=O)O[C@@H](c1cnco1)c1nc([C@@H](O)C[C@@H](O)[C@@H](O)[C@@H](C)O)co1 [BENGAZOLE A] | 0.14 µg/mL | 0.14 µg/mL | 0.28 µg/mL | 0.19 µg/mL | 0.0031 µg/mL | 0.21 µg/mL | 0.15 µg/mL | 
7 | CC(C)CCCCCCCCCCCC(=O)O[C@@H](c1cnco1)c1nc([C@@H](O)C[C@@H](O)[C@@H](O)[C@@H](C)O)co1 [BENGAZOLE B] | 0.053 µg/mL | 0.18 µg/mL | 0.37 µg/mL | 0.19 µg/mL | 0.33 µg/mL | 0.2 µg/mL | 0.15 µg/mL | 
8 | CCCCCCCCCCCCCCC(=O)O[C@@H](c1cnco1)c1nc([C@@H](O)C[C@@H](O)[C@@H](O)[C@@H](C)O)co1 [BENGAZOLE E] | 0.074 µg/mL | 0.081 µg/mL | 0.16 µg/mL | 0.13 µg/mL | 0.18 µg/mL | 0.14 µg/mL | 0.11 µg/mL | 
9 | COc1cc([C@@H]2c3cc4c(c(O)c3C[C@H]3COC(=O)[C@@H]32)OCO4)cc(OC)c1OC [BETA-PELTATIN A] | 0.0031 µg/mL | 0.0012 µg/mL | 0.00055 µg/mL | 0.0004 µg/mL | 0.0076 µg/mL | 0.00077 µg/mL | 0.0021 µg/mL | 
10 | C[C@H]1CCC/C=C/[C@@H]2C[C@H](O)C[C@H]2[C@H](O)/C=C/C(=O)O1 [BREFELDIN A] | 0.23 µg/mL | 0.07 µg/mL | 0.041 µg/mL | 0.38 µg/mL | 0.022 µg/mL | 0.28 µg/mL | 0.13 µg/mL | Activity (MCF7): 0.047 µg/mL; Activity (SF-268): 0.21 µg/mL
11 | CC[C@H]1CN2CCc3cc(OC)c(OC)cc3[C@@H]2C[C@@H]1C[C@H]1NCCc2cc(O)c(OC)cc21 [CEPHAELINE] | 0.0027 µg/mL | 0.024 µg/mL | 0.032 µg/mL | 0.018 µg/mL | 0.022 µg/mL | 0.022 µg/mL | 0.0098 µg/mL | 
12 | Cc1c2oc3c(C)ccc(C(=O)N[C@@H]4C(=O)N[C@H](C(C)C)C(=O)N5CCC[C@H]5C(=O)N(C)CC(=O)N(C)[C@@H](C(C)C)C(=O)O[C@@H]4C)c3nc-2c(C(=O)N[C@@H]2C(=O)N[C@H](C(C)C)C(=O)N3CCC[C@H]3C(=O)N(C)CC(=O)N(C)[C@@H](C(C)C)C(=O)O[C@@H]2C)c(N)c1=O [DACTINOMYCIN] (I: T[dV]P[Sar][NMeV] / II: T[dV]P[Sar][NMeV]; ester I:1-I:C, II:1-II:C; linker I:N-II:N via Actinocin(1to9)) | <0.001 µg/mL |  |  |  |  |  |  | 
13 | O=c1c(-c2ccc(O)cc2)coc2cc(O)ccc12 [DAIDZEIN] |  | 6.2 µg/mL |  |  | 8.8 µg/mL | >10 µg/mL | 7.3 µg/mL | Activity (MCF7): 5.1 µg/mL; Activity (SF-268): 4.4 µg/mL
14 | NC1=N/C(=C2/CCNC(=O)c3[nH]ccc32)C(=O)N1 [DEBROMOHYMENIALDISINE] | 5 µg/mL |  |  |  |  |  |  | 
15 | COc1cc([C@@H]2c3cc4c(cc3C[C@H]3COC(=O)[C@@H]32)OCO4)cc(OC)c1OC [DESOXYPODOPHYLLOTOXIN] | 0.029 µg/mL | 0.00044 µg/mL | 0.0027 µg/mL | 0.00056 µg/mL | 0.0014 µg/mL | 0.0018 µg/mL | 0.0017 µg/mL | 
16 | CS[C@H]1SC[C@H]2C(=O)N(C)[C@@H](C(C)C)C(=O)OC[C@@H](NC(=O)c3cnc4ccccc4n3)C(=O)N[C@@H](C)C(=O)N(C)[C@@H]1C(=O)N(C)[C@@H](C(C)C)C(=O)OC[C@@H](NC(=O)c1cnc3ccccc3n1)C(=O)N[C@@H](C)C(=O)N2C [ECHINOMYCIN] | 0.00147 µg/mL |  |  |  |  |  |  | 
17 | O=c1c(-c2ccc(O)cc2)coc2cc(O)cc(O)c12 [GENISTEIN] |  | 2.5 µg/mL |  |  | 3.7 µg/mL | 1.5 µg/mL | 1.9 µg/mL | Activity (MCF7): 2.5 µg/mL; Activity (SF-268): 1.7 µg/mL
18 | NC1=NC(=O)/C(=C2\CCNC(=O)c3[nH]c(Br)cc32)N1 [HYMENIALDISINE] | 2.4 µg/mL |  |  |  |  |  |  | 
19 | COc1cc([C@H]2c3cc4c(cc3C[C@H]3COC(=O)[C@H]32)OCO4)cc(OC)c1OC [ISOPICRODEOXYPODOPHYLLOTOXIN] | <0.01 µg/mL |  |  |  |  |  |  | 
20 | C/C1=C\[C@H](C)C[C@H](C)OC(=O)C[C@H](c2ccc(O)cc2)NC(=O)[C@@H](Cc2c(Br)[nH]c3ccccc23)N(C)C(=O)[C@H](C)NC(=O)[C@@H](C)C1 [JASPAMIDE] | 0.008 µg/mL |  |  |  |  |  |  | 
21 | CCC1NC(=O)[C@H](C)NC(=O)C(C)(C)C(=O)[C@H](C)NC(=O)[C@H](Cc2ccc(OC)cc2)N(C)C(=O)[C@H](C(C)C)N(C)C(=O)CNC(=O)[C@H]([C@@H](C)CC)N(C)C(=O)CNC(=O)[C@H]([C@@H](C)CC)OC(=O)C1C (stereo partly specified) [MAJUSCULAMIDE C] (cyclo(A[X1]G[NMeI]G[NMeV][NMeY](Me)[X2])) |  |  | 0.51 µg/mL | 0.13 µg/mL | 0.0013 µg/mL | 0.0032 µg/mL |  | Activity (SK-MEL-5): 0.0068 µg/mL; Activity (A498): 0.058 µg/mL
22 | Cl.O[C@]12C=C(c3nccc4c3[nH]c3ccccc34)[C@@H]3CCN(CCCC/C=C\CC1)C[C@@]31C[C@@H]3/C=C\CCCCN3[C@H]12 [MANZAMINE A HCL] | 0.0067 µg/mL | 0.35 µg/mL |  |  | 0.37 µg/mL | 0.36 µg/mL | 0.6 µg/mL | Activity [1]: 99%; MIC ([1]; Mycobacterium tuberculosis): 6.25 µg/mL; Activity (MCF7): 0.41 µg/mL; IC50 (Vero): 1.7 µg/mL; Activity (SF-268): 0.42 µg/mL
23 | C\C(=C/C=C/C(C)=C1/C(=O)C[C@H]2[C@@]3(C)CCC(=O)C(C)(C)[C@@H]3CC[C@]12C)c1ccc(C)c(=O)o1 [STELLETIN A] | 0.012 µg/mL | 0.078 µg/mL |  |  |  |  |  | Activity (MCF7): 0.752 µg/mL
24 | CC(/C=C/C=C(\C)c1ccc(C)c(=O)o1)=C1/C(=O)C[C@H]2[C@@]3(C)CCC(=O)C(C)(C)[C@@H]3CC[C@]12C [STELLETTIN B] | 0.037 µg/mL |  |  |  |  |  |  | 
25 | N#Cc1cn([C@@H]2O[C@H](CO)[C@@H](O)[C@H]2O)c2ncnc(N)c12 [TOYOCAMYCIN] | 0.0023 µg/mL |  |  |  |  |  |  | 
26 | C[C@H]1[C@H](C)CC[C@]2(C(=O)O)CC[C@]3(C)C(=CC[C@@H]4[C@@]5(C)CC[C@H](O)C(C)(C)[C@@H]5CC[C@]43C)[C@H]12 [URSOLIC ACID] | >1 µg/mL |  |  |  |  |  |  | 

Reference: ChEMBL document CHEMBL1142397, “Antineoplastic agents. 536. New sources of naturally occurring cancer cell growth inhibitors from marine organisms, terrestrial plants, and microorganisms(1a,)” (J Nat Prod, 2008)
